In US7723021B2, “Methods for treating lentivirus infections” (The J. David Gladstone Institutes, priority 2003, dated 2010):
“Also recorded” adds a separate entry of the source. Residues, ends and D or L forms follow the SMILES beside them. *: point of attachment. Cbz = O=C(OCc1ccccc1)*

System: Vif-mediated depletion of APOBEC3G-HA in 293T cells
Assay: Proteasome inhibitor panel in 293T cells transiently transfected with APOBEC3G-HA and Vif, immunoblot
Type: cell-based
Conditions: 12.5 μM, 15 hours
Method: 293T cells were transfected with the indicated amounts of expression vector DNA using the calcium phosphate method. Lysis buffers used for immunoblotting were (1) 100-400 mM NaCl, 50 mM Hepes, 0.2% NP40, 0-5 mM EDTA, 0.1 mM PMSF, plus complete protease inhibitor cocktail (Roche)(1 tablet/50 ml buffer) or (2) 50 mM Hepes, pH 7.2, 135 mM NaCl, 1% Triton X-100, 0.5% deoxycholate, 10% glycerol, 1 mM EDTA, 1× protease inhibitor cocktail (Calbiochem). Samples were analyzed using standard SDS-PAGE techniques.
For the proteasome inhibitor experiments in transiently transfected cells, 293T cells were transiently transfected with 0.1 μg of APOBEC3G-HA DNA, 2 μg of control vector DNA and 2 μg of either pcDNA3.1 Vif DNA vector or an additional 2 μg of control vector DNA. Twenty-four hours after transfection, the cells were treated with the indicated inhibitor and harvested 15 hours later. For the proteasome inhibitor experiments using infected H9 cells, H9 cells were infected by spinoculation as described above. Forty-four hours after infection, the cells were treated for 16 hours with either dimethylsulfoxide (DMSO) (0.1%) or 0.25 μM epoxomicin. All of the inhibitors (ALLN, MG132, epoxomicin, Calpain Inhibitor III, and clasto-Lactacystin-β-Lactone) were purchased from CalBiochem and were dissolved in DMSO.
To confirm this finding in a different system, a similar experiment was performed using 293T cells transiently transfected with an APOBEC3G-HA expression vector and either a Vif expression vector or a control vector. Twenty-four hours after transfection the cells were treated with a panel of different proteasome inhibitors for a 15-hour period. It was observed that the broadly acting proteasome inhibitors MG132 (12.5 μM) and ALLN (25 μM) as well as the more specific proteasome inhibitor clasto-Lactacystin-β-Lactone ([…], 20 μM) enhanced the levels of APOBEC3G-HA in the presence of Vif when compared to the diluent control sample (0.1% DMSO) (FIG. 8C, lanes 7 through 12).
FIG. 8A-C. Vif shortens the half-life of APOBEC3G, and proteasome inhibitors partially block the intracellular depletion of APOBEC3G-HA. (A) Pulse-Chase Radiolabeling. HEK 293 cells transiently transfected with APOBEC3G-HA and Vif or control vector DNA were pulse-labeled for 30 min. The initial pulse-labeled (t=0) samples were harvested, and the remaining samples were incubated with chase media for the indicated time points. After immunoprecipitation with anti-HA antibody, the samples were analyzed by SDS-PAGE and the gels were subjected to autoradiography. The relative intensity of the bands were quantified and the Vif (+) and Vif (−) samples were normalized to 1 and graphed (FIG. 8, right side). The T1/2 of APOBEC3G was 1.9 hours in the presence of Vif and 10 hours in the absence of Vif. (B) Proteasome inhibitor studies using infected H9 cells. Mock or HIV-1 wt-infected H9 cells were treated with the broadly active proteasome inhibitor epoxomicin (0.25 μM) or DMSO (0.1%) 44 hours after infection. Sixteen hours following treatment, the cells were harvested; and whole cell lysates were prepared by boiling the cells in Laemmli lysis buffer. Note that Epoxomicin caused an increase in endogenous APOBEC3G levels in the infected sample (compare lane 2 with lane 1). (C) Proteasome inhibitor studies using transiently-transfected 293T cells. Twenty-four hours following transfection of 293T cells with 0.1 μg APOBEC3G and 2 μg Vif or control vector DNA, the cells were treated with the indicated concentration of inhibitor for 15 hours. APOBEC3G-HA levels were elevated in the presence of the proteasome inhibitors MG132, ALLN, and clasto-lactacystin-β-lactone (lanes 8-11), but not in the presence of calpain inhibitor III (lane 12).

`CC(C)C[C@@H](C=O)NC(=O)[C@H](CC(C)C)NC(=O)[C@H](CC(C)C)NC(=O)OCc1ccccc1` [MG132] (Cbz-Leu-Leu-Leu-aldehyde) was tested, and the “levels of APOBEC3G-HA in the presence of Vif compared to diluent control (0.1% DMSO)” value was “enhanced; also recorded: elevated”.
